Source: PubChem BioAssay AID179 (DTP/NCI, 2004)
pEC50, pIC50: −log10 of the molar value. Where “and” joins values, the source holds several entries; their conditions need not be identical. Identical values can stand only once. Calls of active or inactive are those of the source.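 The calls were made as follows: active = compounds giving half or more protection of infected cells from virus-caused growth loss, again on retest; inactive = the rest.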 Where a SMILES comes first, the peptide text is derived from it.

Test system: CEM cells HIV-1 protection, formazan growth assay
Assay: NCI AIDS Antiviral Assay
Conditions: for pIC50: measured here: growth of uninfected CEM cells
In short: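 Human CEM cells, uninfected and HIV-1-infected, exposed to five drug concentrations; growth measured by soluble formazan assay and scored as percent protection from infection, with protecting compounds retested.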

COC(=O)C1(C(=O)OC)N=C(C)OC1C(C)C (stereo not drawn)
pEC50: < 3.70 | pIC50: < 3.70

CON(C(=O)OC(C)(C)C)c1ccccc1
pEC50: 4.21 | pIC50: < 3.70

COC1/C=C/OC2(C)Oc3c(C)c(O)c4c(O)c(c(/C=N/N5CC(C)N(C(=O)c6ccccc6)C(C)C5)c(O)c4c3C2=O)NC(=O)C(C)=C/C=C/C(C)C(O)C(C)C(O)C(C)C(OC(C)=O)C1C (stereo not drawn)
pEC50: < 3.70 | pIC50: 5.19

CCN(CC)c1ccc(C(=O)c2ccccc2C(=O)O)c(O)c1
outcome: inactive

CN(C)c1ccc(/C=C/c2ccnc3ccccc23)cc1
pEC50: < 3.70 | pIC50: 4.97

COC(=O)C1C23CC(=O)CC1(c1ccc4c(c1)OCO4)C2NC3=O (stereo not drawn)
pEC50: < 3.40 | pIC50: < 3.40

CC(=O)CCC1(c2ccccc2)OC(=O)C(C#N)=C1c1ccccc1 (stereo not drawn)
outcome: inactive

CCOC(=O)/C(N=Nc1ccc(-n2c(C)nc3ccccc3c2=O)cc1)=C(/C)O
pEC50: < 3.70 | pIC50: 3.82

COc1ccc(CNc2cnc3ccc(N)cc3n2)cc1
pEC50: < 3.89 | pIC50: 4.11

N=c1sc(N2CCOCC2)nn1CC(=O)c1ccccc1
pEC50: < 3.70 | pIC50: 3.89

CC1=NN2C(=O)C(c3ccccc3)SC2=NC(C)(C)C1 (stereo not drawn)
pEC50: < 3.34 | pIC50: < 3.34

OCC(O)C(O)C(O)c1nc2ccccc2s1 (stereo not drawn)
pEC50: < 3.01 | pIC50: 3.92

CCc1c(OC)oc(CCCCCCCCCC(C)C(C)=O)c(C)c1=O (stereo not drawn)
pEC50: < 4.60 | pIC50: 7.43

CCCCCCCCCCNc1nc(F)nc(Nc2cc3ccc(OC)cc3oc2=O)n1
pEC50: < 4.40 | pIC50: 5.15

COc1ccc(-c2cc(=O)c3c(O)cc(C)cc3o2)cc1OC
pEC50: < 3.70 | pIC50: < 3.70

COc1cc2ccnc([C@@H](OC(=O)c3ccccc3)c3ccc(OC)c(OC)c3OC)c2cc1OC
outcome: inactive

Cc1ccc(NC(=O)C(=O)Cc2cccc[n+]2[O-])cc1C
pEC50: < 4.04 | pIC50: < 4.04

CC1(c2ccc3ccccc3c2)OC(=O)c2ccccc21 (stereo not drawn)
outcome: inactive

O/N=C1\CC2(N3CCOCC3)CCC1(Cc1ccccc1)CC2
pEC50: < 4.00 | pIC50: < 4.00

O=Nc1cc(S(=O)(=O)O)c2ccccc2c1O
pEC50: < 3.70 | pIC50: < 3.70

CSc1nc(-c2ccc(Cl)cc2)c(C#N)c(=O)n1C1OC(COC(C)=O)C(OC(C)=O)C(OC(C)=O)C1OC(C)=O (stereo not drawn)
pEC50: < 3.88 | pIC50: 4.49 and 4.05

O=Cc1c2c(cc3c1CC1(C3)Cc3cc4c(c(C=O)c3C1)CCC4)CCC2
pEC50: < 3.70 | pIC50: 4.46

O=C(CCCn1ccnc1[N+](=O)[O-])NCCn1cncc1[N+](=O)[O-]
pEC50: < 3.70 | pIC50: < 3.70

CCSC(=O)OCn1ncc2cc([N+](=O)[O-])ccc21
pEC50: < 3.70 | pIC50: 4.02

Oc1ccc([S+](c2ccc(O)cc2)c2ccc(O)cc2)cc1
pEC50: < 3.84 | pIC50: < 3.84

COc1cc2c(cc1O)C1C(O2)c2ccc(OCc3ccccc3)cc2OC1(C)C (stereo not drawn)
pEC50: < 3.70 | pIC50: 4.82

CC(C)CC(NC(=O)C(Cc1ccc(O)cc1)NC(=O)C(CO)NC(=O)C(N)CCC(=O)O)C(=O)NCC(=O)O (stereo not drawn) (H-ESYLG-OH; configuration not given here)
outcome: inactive

COc1cc(-c2nc3sc(-c4ccc(O)c(OC)c4)nc3s2)ccc1O
pEC50: 4.08 | pIC50: < 3.70

CN(C)CCCSc1c2ccccc2nc2cc(NCC(=O)Nc3ccccc3-c3ccccc3NC(=O)CNc3ccc4c(SCCCN(C)C)c5ccccc5nc4c3)ccc12
pEC50: < 3.91 | pIC50: 4.23

COC(=O)c1cc(C(=CCC[C@H]2CC[C@@]3(C)C(CC[C@@H]4C3CC[C@@]3(C)C4CC[C@@H]3[C@H](C)CCCC(C)C)C2)c2cc(Cl)c(OC)c(C(=O)OC)c2)cc(Cl)c1OC (stereo partly drawn)
pEC50: < 4.80 | pIC50: < 4.80

CN1C(=O)NC2(O)c3ccccc3C(=O)C12O (stereo not drawn)
pEC50: < 2.97 | pIC50: < 2.97

CN(C)c1ccc(/C=C2\C=Cc3ccccc32)cc1F
pEC50: < 3.70 | pIC50: 3.92

O=C(c1ccc(Cl)cc1)N(C(=O)N1CCCCC1)c1ccccc1
pEC50: < 3.70 | pIC50: 4.09

O=C1NS(=O)(=O)c2cc(Cl)ccc21
pEC50: < 2.94 | pIC50: < 2.94

O=[N+]([O-])c1ccc(C2=CSC3=NCCN23)cc1
outcome: inactive

CCOC(=O)N1CCC(=O)C(CNC23CC4CC(CC(C4)C2)C3)C1 (stereo not drawn)
pEC50: < 2.38 | pIC50: 3.69

Cc1cn(C2COC(C)(CO)O2)c(=O)[nH]c1=O (stereo not drawn)
pEC50: < 3.70 | pIC50: < 3.70

CN(C)Cc1cc(C(=O)/C=C/c2cccc(Cl)c2)cc(CN(C)C)c1O
outcome: inactive

Cc1ccc2ccc(-c3cc4ccccc4s3)nc2c1
outcome: inactive

COC(=O)C(CC(=O)Nc1ccc(C)cc1)C(=O)C(=O)Nc1c(C(C)C)cccc1C(C)C (stereo not drawn)
pEC50: < 4.10 | pIC50: < 4.10

O=C(N1CC2(CN(C(=O)C(F)(F)F)CC3(C1)OCCO3)OCCO2)C(F)(F)F
pEC50: < 3.70 | pIC50: < 3.70

COC1=CC(=O)c2c(cc3c(c2O)-c2c(OC)cc4cc5c(c(O)c4c2OC(=O)CC(C)(O)C3)C(=O)CC(C)(O)C5)C1=O (stereo not drawn)
pEC50: < 4.00 | pIC50: 5.27

CC1=C[C@@]2(C=C(C(=O)O)[C@@]34CCCC(C)(C)C3C[C@@H]2OC4)OC1=O (stereo partly drawn)
pEC50: < 3.42 | pIC50: < 3.42

CN1CCN(C)C12C=c1ccccc1=CC21CC1
outcome: inactive

CN(c1ccccc1Cl)S(=O)(=O)c1ccc([N+](=O)[O-])cc1
pEC50: < 3.70 | pIC50: < 3.70

CCOC(=O)NC(=O)c1cn(CCN2CCN(c3ncnc4nc[nH]c34)CC2)c(=O)[nH]c1=O
outcome: inactive

CC(=O)NNC(=S)/N=C/c1c(O)cc(C)oc1=O
pEC50: < 3.70 | pIC50: < 3.70

CC(c1ccccc1)N1C(=O)CSC1=S (stereo not drawn)
outcome: inactive

C/C=C/[C@@H](C(=O)OC)N1C(=O)c2ccccc2[C@H]1O
pEC50: < 3.70 | pIC50: < 3.70

c1ccc(C2CN=C(c3ccccn3)C(c3ccccn3)=N2)cc1 (stereo not drawn)
pEC50: < 4.22 | pIC50: < 4.22

Cc1ccc(S(=O)(=O)N/N=C2\CC3C4CCC3C2C4)cc1 (stereo not drawn)
pEC50: < 3.70 | pIC50: < 3.70

CC1=N/C(=C\c2ccc(N)cc2)C(=O)N1Nc1nnc(NN2C(=O)/C(=C/c3ccc(N)cc3)N=C2C)c2ccccc12
outcome: inactive

COc1cc(OC)c(/C=C/c2ccncn2)c(OC)c1
pEC50: < 3.74 | pIC50: 4.03

CC1(C)CCCC2(C)[C@@H]1CC[C@]13C[C@](C)(CC[C@@H]21)[C@@H]3CO (stereo partly drawn)
pEC50: < 4.91 | pIC50: < 4.91

COC1CC(O[C@H]2CC[C@@]3(C)[C@H](CC[C@@H]4[C@@H]3CC[C@]3(C)[C@@H](C5=CC(=O)OC5)[C@@H](OC(C)=O)C[C@]43O)C2)OC(C)C1O (stereo partly drawn)
pEC50: < 6.70 | pIC50: 7.99

Cc1ccc(-n2c(=O)c3nn4c(=O)n(-c5ccc(C)cc5)c(=O)c4nn3c2=O)cc1
pEC50: < 3.70 | pIC50: < 3.70

Cc1ccc(S(=O)(=O)N(CCN2C(=O)c3ccccc3C2=O)c2cc3c4c(c2)Oc2cc(N(CCN5C(=O)c6ccccc6C5=O)S(=O)(=O)c5ccc(C)cc5)cc5c2C4(C)c2c(cc(N(CCN4C(=O)c6ccccc6C4=O)S(=O)(=O)c4ccc(C)cc4)cc2O5)O3)cc1
pEC50: < 4.00 | pIC50: 4.19

O=C1[C@@H]2[C@H](C(=O)N1c1ccccc1)[C@H]1CC[C@H]2N1C(=O)c1ccccc1
pEC50: < 4.26 | pIC50: < 4.26

N.N.N.N.N.NC(=O)c1nn[n-]n1.[Cl-].[Co+3]
pEC50: < 3.12 | pIC50: < 3.12
